Values quoted from earlier work in publication PMC7485629 (Biochemistry, 2019).
Read-outs that look alike come from different tables or passages of the source.

System: N-terminus of PD-L1
Conditions: crystal structure

Row | Compound | interaction with N-terminus of PD-L1 (ref [66]) | interaction with N-terminus of PD-L1 (ref [21])
1 | Cc1c(COc2cc(F)c(CNC[C@@H](O)CC(=O)O)cc2F)cccc1-c1ccc2c(c1)OCCO2 [BMS-200] | hydrogen bond with Thr20 | –
2 | COc1nc(OCc2cccc(-c3ccccc3)c2C)ccc1CNCCNC(C)=O [BMS-202] | – | water-mediated interaction with the backbone carbonyl of Phe19
